In patent US20260092061A1, “COMPOUNDS FOR TARGETED PROTEIN DEGRADATION” (Amphista Therapeutics Limited, priority 2022, published 2026):

Assays:
BRD9 [1] = target: T1, BRD9 (Homo sapiens, UniProt Q9H8M2); assay: BRD9 degradation, HiBiT-BRD9 KI HEK293 (LgBiT) cells, NanoGlo Lytic Endpoint assay (Assay Protocol 1); assay type: cell-based; conditions: Assay protocol 1, BRD9 degradation; for DC50: read-out: DC50; for Dmax: HEK293, read-out: Dmax
T1 sequence (Q9H8M2 1-597): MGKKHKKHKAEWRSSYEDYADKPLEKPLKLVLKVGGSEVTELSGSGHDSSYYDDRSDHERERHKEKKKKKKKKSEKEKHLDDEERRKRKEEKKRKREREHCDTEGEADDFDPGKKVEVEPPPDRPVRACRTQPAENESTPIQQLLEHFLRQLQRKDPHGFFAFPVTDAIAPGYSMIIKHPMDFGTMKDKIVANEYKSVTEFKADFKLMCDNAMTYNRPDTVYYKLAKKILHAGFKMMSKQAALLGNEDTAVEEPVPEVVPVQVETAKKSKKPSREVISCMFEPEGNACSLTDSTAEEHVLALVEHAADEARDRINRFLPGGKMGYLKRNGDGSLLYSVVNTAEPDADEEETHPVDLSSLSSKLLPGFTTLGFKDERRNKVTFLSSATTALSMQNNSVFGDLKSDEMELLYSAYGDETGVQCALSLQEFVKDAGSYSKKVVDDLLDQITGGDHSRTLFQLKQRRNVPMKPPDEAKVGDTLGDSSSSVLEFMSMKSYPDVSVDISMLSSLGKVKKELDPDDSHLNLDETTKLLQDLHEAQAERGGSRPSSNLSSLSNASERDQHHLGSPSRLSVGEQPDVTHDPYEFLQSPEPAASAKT
How it was run: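 HiBiT-tagged BRD9 knock-in HEK293 (LgBiT) cells exposed to compounds for 6 h at 37 °C, 5% CO2. Residual BRD9 measured by HiBiT lytic luminescence. % BRD9 remaining normalised to DMSO-treated cells (high) and no-cell wells (low).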

BRD9 [2] = target: T1, BRD9; assay: Degradation of BRD9 (IF), immunofluorescence in MV4-11 cells, 24 hours (Assay Protocol 2); assay type: cell-based; design: A suspension of MV4-11 cells (ATCC CRL-9591) was prepared; host or cells: MV4-11; conditions: BRD9 degradation; for DC50: Assay protocol 2, read-out: DC50; for Dmax: MV4-11, Assay protocol 2, read-out: Dmax
How it was run: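 % BRD9 remaining, scaled between DMSO (high) and 100 nM CFT-8634 (low) control wells, derives from mean Alexa 647 contrast in central nuclei by high-content imaging. MV4-11 cells had 24 h compound exposure at 37° C. before PFA fixation, Triton permeabilisation and anti-BRD9 E4Q3F immunostaining.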

Compound	DC50 (BRD9 [1])	Dmax (BRD9 [1])	DC50 (BRD9 [2])	Dmax (BRD9 [2])
COc1cc(-c2cn(C)c(=O)c(C)c2C)cc(OC)c1CN1CC2CC(C1)N2Cc1cccc2c1CCN(C(=O)/C(C#N)=C/c1cccc(Br)n1)C2C (mixture of isomers) [Compound B7, (E/Z)-3-(6-bromopyridin-2-yl)-2-(5-((3-(2,6-dimethoxy-4-(1,4,5-trimethyl-6-oxo-1,6-dihydropyridin-3-yl)benzyl)-3,6-diazabicyclo[3.1.1]heptan-6-yl)methyl)-1-methyl-1,2,3,4-tetrahydroisoquinoline-2-carbonyl)acrylonitrile]	1.25 to 10 nM	40 to 70%	< 1.25 nM	40 to 70%
COc1cc(-c2cn(C)c(=O)c(C)c2C)cc(OC)c1CN1CCN(Cc2cccc3c2CCN(C(=O)/C(C#N)=C/c2ccnc(C)n2)C3C)CC1 (mixture of isomers) [Compound B9, (E/Z)-2-(5-((4-(2,6-dimethoxy-4-(1,4,5-trimethyl-6-oxo-1,6-dihydropyridin-3-yl)benzyl)piperazin-1-yl)methyl)-1-methyl-1,2,3,4-tetrahydroisoquinoline-2-carbonyl)-3-(2-methylpyrimidin-4-yl)acrylonitrile]	< 1.25 nM	> 75%	< 1.25 nM	> 75%
COc1cc(-c2cn(C)c(=O)c(C)c2C)cc(OC)c1CN1CCN(Cc2cccc3c2CCN(C(=O)/C(C#N)=C/c2ncc(C(F)(F)F)s2)C3C)CC1 (mixture of isomers) [Compound B10, (E/Z)-2-(5-((4-(2,6-dimethoxy-4-(1,4,5-trimethyl-6-oxo-1,6-dihydropyridin-3-yl)benzyl)piperazin-1-yl)methyl)-1-methyl-1,2,3,4-tetrahydroisoquinoline-2-carbonyl)-3-(5-(trifluoromethyl)thiazol-2-yl)acrylonitrile]	1.25 to 10 nM	70 to 75%		40 to 70%
COc1cc(-c2cn(C)c(=O)c(C)c2C)cc(OC)c1CN1CCN(Cc2cccc3c2CCN(C(=O)/C(C#N)=C/c2nc(C(F)(F)F)cs2)C3C)CC1 (mixture of isomers) [Compound B11, (E/Z)-2-(5-((4-(2,6-dimethoxy-4-(1,4,5-trimethyl-6-oxo-1,6-dihydropyridin-3-yl)benzyl)piperazin-1-yl)methyl)-1-methyl-1,2,3,4-tetrahydroisoquinoline-2-carbonyl)-3-(4-(trifluoromethyl)thiazol-2-yl)acrylonitrile]	< 1.25 nM	> 75%	< 1.25 nM	> 75%
COc1cc(-c2cn(C)c(=O)c(C)c2C)cc(OC)c1CN1CC2CC(C1)N2Cc1cccc(C2CCCN2C(=O)/C(C#N)=C/c2cccc(Br)n2)c1 (mixture of isomers) [Compound B12, (E/Z)-3-(6-bromopyridin-2-yl)-2-(2-(3-((3-(2,6-dimethoxy-4-(1,4,5-trimethyl-6-oxo-1,6-dihydropyridin-3-yl)benzyl)-3,6-diazabicyclo[3.1.1]heptan-6-yl)methyl)phenyl)pyrrolidine-1-carbonyl)acrylonitrile]	10 to 25 nM	> 75%	1.25 to 10 nM	> 75%
COc1cc(-c2cn(C)c(=O)c(C)c2C)cc(OC)c1CN1C2CC1CN(Cc1cccc3c1CCN(C(=O)/C(C#N)=C/C(C)(C)C)C3C)C2 (mixture of isomers) [Compound B13, (E/Z)-2-(5-((6-(2,6-dimethoxy-4-(1,4,5-trimethyl-6-oxo-1,6-dihydropyridin-3-yl)benzyl)-3,6-diazabicyclo[3.1.1]heptan-3-yl)methyl)-1-methyl-1,2,3,4-tetrahydroisoquinoline-2-carbonyl)-4,4-dimethylpent-2-enenitrile]	10 to 25 nM	> 75%	1.25 to 10 nM	40 to 70%
COc1cc(-c2cn(C)c(=O)c(C)c2C)cc(OC)c1CN(C)Cc1cccc2c1CCN(C(=O)/C(C#N)=C/c1cccc(Br)n1)C2C (mixture of isomers) [Compound B14, (E/Z)-3-(6-bromopyridin-2-yl)-2-(5-(((2,6-dimethoxy-4-(1,4,5-trimethyl-6-oxo-1,6-dihydropyridin-3-yl)benzyl)(methyl)amino)methyl)-1-methyl-1,2,3,4-tetrahydroisoquinoline-2-carbonyl)acrylonitrile]	1.25 to 10 nM	> 75%	1.25 to 10 nM	> 75%
COc1cc(-c2cn(C)c(=O)c(C)c2C)cc(OC)c1CN(C)Cc1cccc2c1CCN(C(=O)/C(C#N)=C/c1cccc(C(F)(F)F)n1)C2C (mixture of isomers) [Compound B15, (E/Z)-2-(5-(((2,6-dimethoxy-4-(1,4,5-trimethyl-6-oxo-1,6-dihydropyridin-3-yl)benzyl)(methyl)amino)methyl)-1-methyl-1,2,3,4-tetrahydroisoquinoline-2-carbonyl)-3-(6-(trifluoromethyl)pyridin-2-yl)acrylonitrile]	1.25 to 10 nM	> 75%	< 1.25 nM	> 75%
COc1cc(-c2cn(C)c(=O)c(C)c2C)cc(OC)c1CN(C)C(=O)c1cccc2c1CCN(C(=O)/C(C#N)=C/c1cccc(Br)n1)C2C (mixture of isomers) [Compound B16, (E/Z)-2-(3-(6-bromopyridin-2-yl)-2-cyanoacryloyl)-N-(2,6-dimethoxy-4-(1,4,5-trimethyl-6-oxo-1,6-dihydropyridin-3-yl)benzyl)-N,1-dimethyl-1,2,3,4-tetrahydroisoquinoline-5-carboxamide]	< 1.25 nM	> 75%	1.25 to 10 nM	> 75%
COc1cc(-c2cn(C)c(=O)c(C)c2C)cc(OC)c1CN(C)C(=O)c1ccc2c(c1)CCN(C(=O)/C(C#N)=C/c1cccc(Br)n1)C2C (mixture of isomers) [Compound B17, (E/Z)-2(3-(6-bromopyridin-2-yl)-2-cyanoacryloyl)-N-(2,6-dimethoxy-4-(1,4,5-trimethyl-6-oxo-1,6-dihydropyridin-3-yl)benzyl)-N,1-dimethyl-1,2,3,4-tetrahydroisoquinoline-6-carboxamide]	25 to 1000 nM	40 to 70%	25 to 1000 nM	40 to 70%
COc1cc(-c2cn(C)c(=O)c(C)c2C)cc(OC)c1CN1CCN(Cc2cccc3c2CCN(C(=O)/C(C#N)=C/c2ccc(C)cn2)C3C)CC1 (mixture of isomers) [Compound B18, (E/Z)-2-(5-((4-(2,6-dimethoxy-4-(1,4,5-trimethyl-6-oxo-1,6-dihydropyridin-3-yl)benzyl)piperazin-1-yl)methyl)-1-methyl-1,2,3,4-tetrahydroisoquinoline-2-carbonyl)-3-(5-methylpyridin-2-yl)acrylonitrile]	1.25 to 10 nM	40 to 70%		25 to 40%
COc1cc(-c2cn(C)c(=O)c(C)c2C)cc(OC)c1CN1CCN(Cc2cccc3c2CCN(C(=O)/C(C#N)=C/c2cc(C)ccn2)C3C)CC1 (mixture of isomers) [Compound B19, (E/Z)-2-(5-((4-(2,6-dimethoxy-4-(1,4,5-trimethyl-6-oxo-1,6-dihydropyridin-3-yl)benzyl)piperazin-1-yl)methyl)-1-methyl-1,2,3,4-tetrahydroisoquinoline-2-carbonyl)-3-(4-methylpyridin-2-yl)acrylonitrile]	1.25 to 10 nM	40 to 70%		40 to 70%
